According to ChEMBL document CHEMBL1201862, “PubChem BioAssay data set” (2004):
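Briefly, cells in 96-well plates were exposed to five compound concentrations for 48 h, and endpoints were estimated by linear interpolation. GI50 = concentration required for 50% inhibition of growth.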 Calls of active or inactive are those of the source. Cut-off read from the data, not from the text of the source: active = GI50 up to about 1.1 µM and inactive = higher.

Legend:
Test in all cases: inhibition of tumour cell growth, NCI panel, 48 h
KM12 = test system: KM12
M14 = test system: M14
A549 = test system: A549
TK-10 = test system: TK-10
786-0 = test system: 786-0
CCRF-CEM = test system: CCRF-CEM
OVCAR-8 = test system: OVCAR-8
UO-31 = test system: UO-31
HL-60 = test system: HL-60
EKVX = test system: EKVX
DU-145 = test system: DU-145
SK-MEL-5 = test system: SK-MEL-5
SN12C = test system: SN12C
IGROV-1 = test system: IGROV-1
SK-OV-3 = test system: SK-OV-3
HT-29 = test system: HT-29
COLO 205 = test system: COLO 205
SK-MEL-2 = test system: SK-MEL-2
NCI-H522 = test system: NCI-H522
NCI-H226 = test system: NCI-H226

| Compound | GI50 (KM12) | GI50 (M14) | GI50 (A549) | GI50 (TK-10) | GI50 (786-0) | GI50 (CCRF-CEM) | GI50 (OVCAR-8) | GI50 (UO-31) | GI50 (HL-60) | GI50 (EKVX) | GI50 (DU-145) | GI50 (SK-MEL-5) | GI50 (SN12C) | GI50 (IGROV-1) | GI50 (SK-OV-3) | GI50 (HT-29) | GI50 (COLO 205) | GI50 (SK-MEL-2) | GI50 (NCI-H522) | GI50 (NCI-H226) |
| --- | --- | --- | --- | --- | --- | --- | --- | --- | --- | --- | --- | --- | --- | --- | --- | --- | --- | --- | --- | --- |
| O=C(O)CCCCn1ccc(=O)[nH]c1=O | > 100 µM (inactive) | > 100 µM (inactive) | > 100 µM (inactive) | > 100 µM (inactive) | > 100 µM (inactive) | > 100 µM (inactive) | > 100 µM (inactive) | > 100 µM (inactive) | > 100 µM (inactive) | > 100 µM (inactive) | > 100 µM (inactive) | > 100 µM (inactive) | > 100 µM (inactive) | > 100 µM (inactive) | > 100 µM (inactive) | > 100 µM (inactive) | > 100 µM (inactive) | > 100 µM (inactive) | > 100 µM (inactive) | > 100 µM (inactive) |
| CSc1cc(-c2ccccn2)nc(-c2ccccn2)c1 | 0.124 µM (active) | 0.0695 µM (active) | 0.137 µM (active) | 0.0401 µM (active) | 0.0546 µM (active) | 0.0527 µM (active) | 0.0845 µM (active) | 0.0607 µM (active) | 0.0492 µM (active) | 0.0906 µM (active) | 0.097 µM (active) | 0.126 µM (active) | 0.0991 µM (active) | 0.102 µM (active) | 0.255 µM (active) | 0.149 µM (active) | 0.125 µM (active) | 0.552 µM (active) | 0.385 µM (active) | 0.0395 µM (active) |
| Clc1nc2n(c1/C=C/c1cccs1)CCS2 | 37.7 µM (inactive) | 38.7 µM (inactive) | 34.5 µM (inactive) | 36 µM (inactive) | 20 µM (inactive) | 10.9 µM (inactive) | 29.7 µM (inactive) | 31 µM (inactive) | 6 µM (inactive) | 5.43 µM (inactive) | 28.6 µM (inactive) | 17.1 µM (inactive) | 31.4 µM (inactive) | 32 µM (inactive) | 30.7 µM (inactive) | 24.3 µM (inactive) | 37.8 µM (inactive) | > 100 µM (inactive) | 35.1 µM (inactive) | 31.6 µM (inactive) |
| C=C1C[C@@H](O)[C@@H](Br)C(C)(C)[C@]12CCC(C)(Br)C(Cl)C2 (stereo not given in full) | 1.07 µM (active) | > 50 µM (inactive) | > 50 µM (inactive) | > 50 µM (inactive) | > 50 µM (inactive) | > 50 µM (inactive) | > 50 µM (inactive) | > 50 µM (inactive) | 1.03 µM (active) | 25.4 µM (inactive) | > 50 µM (inactive) | > 50 µM (inactive) | > 50 µM (inactive) | > 50 µM (inactive) | > 50 µM (inactive) | 6.1 µM (inactive) | 0.791 µM (active) | > 50 µM (inactive) | > 50 µM (inactive) | 41.3 µM (inactive) |
| CCOC(OCC)C(CC)[Se]c1ccccc1[N+](=O)[O-] (stereo not given) | 3.06 µM (inactive) | 1.63 µM (inactive) | 4.79 µM (inactive) | 8.09 µM (inactive) | 3.41 µM (inactive) | 2 µM (inactive) | 4.48 µM (inactive) | 7.43 µM (inactive) | 0.418 µM (active) | 5.7 µM (inactive) | 3.95 µM (inactive) | 2.42 µM (inactive) | 7.94 µM (inactive) | 3.48 µM (inactive) | 2.31 µM (inactive) | 2.39 µM (inactive) | 2.48 µM (inactive) | 6.34 µM (inactive) | 1.72 µM (inactive) | 7.96 µM (inactive) |
| C1=C2C3=[N+](CCCCC3)CC2Cc2ccsc21 (stereo not given) | 30.4 µM (inactive) | > 100 µM (inactive) | 21.5 µM (inactive) | 59.8 µM (inactive) | > 100 µM (inactive) | > 100 µM (inactive) | 76.6 µM (inactive) | > 100 µM (inactive) | 66.1 µM (inactive) | 53.5 µM (inactive) | > 100 µM (inactive) | 53 µM (inactive) | 67.9 µM (inactive) | > 100 µM (inactive) | > 100 µM (inactive) | 32.8 µM (inactive) | 40.6 µM (inactive) | > 100 µM (inactive) | 39.7 µM (inactive) | > 100 µM (inactive) |
| O=C(CCl)Nc1ccc(-c2nc3ccccc3s2)cc1 | 3.3 µM (inactive) | 1.97 µM (inactive) | 10 µM (inactive) | 15.7 µM (inactive) | 2 µM (inactive) | 0.94 µM (active) | 2.59 µM (inactive) | 13 µM (inactive) | 1.91 µM (inactive) | 6.97 µM (inactive) | 10.4 µM (inactive) | 1.6 µM (inactive) | 1.87 µM (inactive) | 1.34 µM (inactive) | 4.78 µM (inactive) | 2.39 µM (inactive) | 2.07 µM (inactive) | 2.65 µM (inactive) | 1.77 µM (inactive) | 1.43 µM (inactive) |
| Nc1ccc(C(=O)O)cc1.Nc1nc(N)c2nc[nH]c2n1 | 22.3 µM (inactive) | 10.7 µM (inactive) | 13.3 µM (inactive) | 19.8 µM (inactive) | 26.7 µM (inactive) | 19.6 µM (inactive) | 22.1 µM (inactive) | 11.3 µM (inactive) | 31.4 µM (inactive) | 14.5 µM (inactive) | 13.8 µM (inactive) | 21.5 µM (inactive) | 39 µM (inactive) | 29.9 µM (inactive) | 34.8 µM (inactive) | 20.4 µM (inactive) | 25.9 µM (inactive) | 22.9 µM (inactive) | 17.8 µM (inactive) | > 100 µM (inactive) |
| COc1cc(C2S/C(=C/c3ccccc3)C(=O)N2c2ccccn2)cc(OC)c1OC (stereo not given) | 12.9 µM (inactive) | 15.1 µM (inactive) | 18.5 µM (inactive) | 45.7 µM (inactive) | 14.3 µM (inactive) | 3.57 µM (inactive) | 9.2 µM (inactive) | 13.5 µM (inactive) | 12.4 µM (inactive) | 24.4 µM (inactive) | 10.3 µM (inactive) | 20.2 µM (inactive) | 15.3 µM (inactive) | 11 µM (inactive) | 28.2 µM (inactive) | 11 µM (inactive) | 29 µM (inactive) | 30 µM (inactive) | 7.18 µM (inactive) | 45.9 µM (inactive) |
| Cc1ccc(S(=O)(=O)N/N=C/c2oc(-c3cccc([N+](=O)[O-])c3)c(-c3cccc([N+](=O)[O-])c3)c2[N+](=O)[O-])cc1 | 36 µM (inactive) | 51.2 µM (inactive) | > 100 µM (inactive) | > 100 µM (inactive) | 60.7 µM (inactive) | 19.5 µM (inactive) | 70.6 µM (inactive) | 16.3 µM (inactive) | 25.4 µM (inactive) | > 100 µM (inactive) | > 100 µM (inactive) | 73.1 µM (inactive) | 61.4 µM (inactive) | 29.9 µM (inactive) | 23.4 µM (inactive) | > 100 µM (inactive) | > 100 µM (inactive) | 28.3 µM (inactive) | 15.1 µM (inactive) | > 100 µM (inactive) |
| COc1cc(=O)n2c3ccccc3n(C)c2c1C#N | > 100 µM (inactive) | > 100 µM (inactive) | > 100 µM (inactive) | > 100 µM (inactive) | > 100 µM (inactive) | > 100 µM (inactive) | > 100 µM (inactive) | > 100 µM (inactive) | > 100 µM (inactive) | > 100 µM (inactive) | > 100 µM (inactive) | > 100 µM (inactive) | > 100 µM (inactive) | > 100 µM (inactive) | > 100 µM (inactive) | 74.3 µM (inactive) | > 100 µM (inactive) | > 100 µM (inactive) | > 100 µM (inactive) | > 100 µM (inactive) |
| CC1(C)CC(=O)C(CCC(=O)/C=C/c2ccccc2)C(=O)C1 | > 100 µM (inactive) | > 100 µM (inactive) | > 100 µM (inactive) | > 100 µM (inactive) | > 100 µM (inactive) | > 34.9 µM (inactive) | > 100 µM (inactive) | > 61.4 µM (inactive) | 2.51 µM (inactive) | > 100 µM (inactive) | > 100 µM (inactive) | > 100 µM (inactive) | > 100 µM (inactive) | > 100 µM (inactive) | > 100 µM (inactive) | > 100 µM (inactive) | > 100 µM (inactive) | > 100 µM (inactive) | > 100 µM (inactive) | > 100 µM (inactive) |
| COc1cc2ccc1OCc1cccc(n1)COc1ccc(cc1OC)/C=N\CCNCCNCC/N=C\2 | > 100 µM (inactive) | > 100 µM (inactive) | > 100 µM (inactive) | > 100 µM (inactive) | > 100 µM (inactive) | > 100 µM (inactive) | > 100 µM (inactive) | > 100 µM (inactive) | 53.5 µM (inactive) | > 100 µM (inactive) | > 100 µM (inactive) | > 100 µM (inactive) | > 100 µM (inactive) | > 100 µM (inactive) | > 100 µM (inactive) | > 100 µM (inactive) | > 100 µM (inactive) | > 100 µM (inactive) | > 100 µM (inactive) | > 100 µM (inactive) |
| COc1ccc(C2SCC(=O)N2NC(=O)C(C)Oc2ccccc2C)cc1 (stereo not given) | > 100 µM (inactive) | > 100 µM (inactive) | 61.4 µM (inactive) | > 100 µM (inactive) | > 100 µM (inactive) | 65.2 µM (inactive) | > 100 µM (inactive) | 72.1 µM (inactive) | 28.7 µM (inactive) | > 100 µM (inactive) | > 100 µM (inactive) | 53 µM (inactive) | 87.7 µM (inactive) | > 100 µM (inactive) | > 100 µM (inactive) | 95.9 µM (inactive) | > 100 µM (inactive) | 92.7 µM (inactive) | 56.6 µM (inactive) | > 100 µM (inactive) |
